According to US20140010806A1, “Treatment of Ocular Diseases” (priority 2012, published 2014):

Target: NF-κB
Test: NF-κB-bla THP-1 β-lactamase reporter assay, activation of NF-κB by TNFα or LPS
Format: cell-based, human
Details: positive control assays; 1 hour β-lactamase substrate incubation
Description: Reduction of inflammation. Inhibition of NF-κB by 17α-ethynylandrost-5-ene-3β,7β,17β-triol in vitro. A number of compounds were used to inhibit activation of NF-κB by TNF-α or LPS in human cells in vitro. Activation of NF-κB increases expression of a number of genes that mediate inflammation. This protocol used human THP-1 cells, which are human mononuclear blood cells with a monocyte phenotype. The cell line, referred to as NF-κB-bla THP-1, contained a β-lactamase reporter gene under the control of the NF-κB response element (Invitrogen, CellSensor™, product No. K1176). In this cell line, the β-lactamase reporter gene is stably integrated in the THP-1 cells. This cell line was used to detect agonists or antagonists of the NF-κB signaling pathway. These NF-κB-bla THP-1 cells respond to the presence of tumor necrosis factor alpha (TNFα) or bacterial lipopolysaccharide (LPS) by increased expression of the β-lactamase reporter gene. The level of β-lactamase enzyme activity was measured by fluorescence resonance energy transfer ratiometric detection. […]
The NF-κB-bla THP-1 cells were maintained by passaging or feeding as needed. […] The cells were plated at 20,000 cells/well in a 384-well Black-wall, clear bottom assay plates (Costar #3712-TC low fluorescence background plates) approximately 24 hours before adding either TNFα at 10 ng/mL or LPS at 0.2 ng/mL to activate NF-κB. […]

Substance: TNFα
- EC50 concentration for TNFα, activation of NF-κB: 0.20 ng/mL
